Reference: patent US20150225369A1, “DDR2 INHIBITORS FOR THE TREATMENT OF OSTEOARTHRITIS” (Merck Patent GmbH, priority 2012, published 2015)
Read-outs that look alike come from different tables or passages of the source.

How the values were obtained:
[1] = test system: proMMP13 production by SW1353 cells; assay: Production of MMP13 (proMMP13 ELISA) by SW1353 cells upon stimulation with collagen type II; format: cell-based; conditions: Homo sapiens, read-out: IC50 [pro-MMP13]
Procedure: The binding of Collagen type II to the DDR2 receptor of the SW1353 cells initiate a signalling cascade resulting in the increase of MMP13 expression. MMP13 is released in the culture medium in its pro-form, the proMMP13 which can be measured with an ELISA.
DDR2 inhibitors are evaluated for their ability to block this signalling cascade and therefore proMMP13 production upon collagen stimulation.
SW1353 cells (ATCC, HTB-94), conserved in liquid nitrogen, are thawed and cultivated at 1.6.10^6 cells in a T75 in RPMI1640 supplemented with 2 mM Glutamin, 1 mM Na-Pyruvate, 10% FCS, at 37° C., 5% CO2 for three days. SW1353 cells are then harvested with trypsin/EDTA and resuspended in RPMI1640 supplemented with 2 mM Glutamin, 1 mM Na-Pyruvate, 25 mM HEPES and 0.5% FCS (assay medium) and inoculated in a 96 well plate at 30 000 cells/well in 100 μL of the assay medium and further incubated 24 hours at 37°, 5% CO2 to enable cell adhesion. For stimulation of the DDR2 receptor, 50 μL of a collagen type II solution 160 μg/mL (final concentration in the well is 40 μg/mL) will be added in each well as well as 50 μL of the different dilutions of the inhibitors (MSCs) from 0.003 μM to 10 μM (final concentration in the plate). Each condition is performed in four-plicates. After three additional days of culture, the supernatant will be harvested for proMMP13 measurement.
The Different Controls Present on Each Plate are Composed of Assay Medium with: Positive control (with the reference compound): 40 μg/mL Collagen type II, 0.03 μM Dasatinib (reference compound) in 0.1% DMSO Negative control (no inhibition): 40 μg/mL Collagen type II and 0.1% DMSO Medium control (no stimulation): 0.005% Acetic acid and 0.1% DMSO All wells contains 0.1% DMSO and 0.005% acetic acid.
The solutions needed are: • Collagen type II is diluted at 2 mg/mL in 0.25% acetic acid. This stock solution can be stored at 4° C. for a week and is diluted 1/12.5 in the assay medium (to obtain 160 μg/mL in 0.02% acetic acid) before being used in the assay. • MSCs from 0.012 to 40 μM in assay medium with 0.4% DMSO (they are then further diluted ¼ in the assay plate) • Dasatinib 0.12 μM in assay medium with 0.4% DMSO (it is then further diluted ¼ in the assay plate) • Acetic acid 0.02% in assay medium (control).
The harvested supernatants are either directly used or stored at −20° C. until use. ProMMP13 is measured with a commercial ELISA kit, according the recommendation of the manufacturer (see Annex). Briefly, 50 μL of each samples are used undiluted and the standard curve is realised in the assay medium. At the end of the assay the ELISA plate is read on a Paradigm MTP-Reader (Beckman Coulter) at 540 (reference wavelength) and 450 nm. All the absorbance values obtained at 450 nm are corrected with the absorbance at 540 nm and a ‘Four Parameter Fit’ is used to establish the standard curve. From the standard curve the concentrations of proMMP13 in all the samples are calculated. All the calculations are realised by the Paradigm software.
The data reported in the database are the % effect of the compounds at the two highest concentrations (10 and 3 μM) as well as the IC50.
% effect at the two highest concentrations is calculated according to the formula: […]
The IC50s are calculated with the software Graph Pad Prism (see tables in Example 1).

[2] = molecular target: T1, His-tagged human recombinant DDR-2 kinase domain (His-TEV-DDR2 467-855 aa) (Homo sapiens, UniProt Q16832); assay: Autophosphorylation assay for biochemical activity testing of DDR2 (HTRF); conditions: 4 nM DDR2 kinase domain, 150 μM ATP, 150 min at 22° C.
T1 construct: His-TEV-DDR2 467-855 aa
T1 sequence (Q16832 467-855): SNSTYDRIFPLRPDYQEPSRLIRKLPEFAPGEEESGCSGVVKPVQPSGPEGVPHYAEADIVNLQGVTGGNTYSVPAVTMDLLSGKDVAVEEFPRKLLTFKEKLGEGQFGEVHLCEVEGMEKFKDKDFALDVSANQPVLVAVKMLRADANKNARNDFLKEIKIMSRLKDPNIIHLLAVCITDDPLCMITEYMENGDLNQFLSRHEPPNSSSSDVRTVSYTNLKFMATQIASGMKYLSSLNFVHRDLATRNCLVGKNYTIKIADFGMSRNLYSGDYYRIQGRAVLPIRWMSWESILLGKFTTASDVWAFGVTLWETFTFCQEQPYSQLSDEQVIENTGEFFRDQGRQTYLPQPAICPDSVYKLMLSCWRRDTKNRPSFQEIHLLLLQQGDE
Method in brief: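 Phospho-tyrosine was detected by HTRF between XL665 anti-6His and cryptate anti-phosphotyrosine PT66 antibodies, using the emission ratio. Inhibition was referenced to the inhibitor-free reaction.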

[3] = 72 h, SW1353 cells, 40 μg/mL collagen type II, three days

Row | SMILES | IC50 [1, 3] [nM] | IC50 [2] [nM] | IC50 ([1]; SW1353, 72 h) [nM]
1 | CNC(=O)c1cc(Oc2ccc(CNC(=O)Nc3cc(Cl)cnc3OC)cc2)ccn1 [compound 21] | 69 | 44 | –
2 | CNC(=O)c1cc(Oc2ccc(CNC(=O)Nc3cc(C(F)(F)F)cn(C)c3=O)cc2C)ccn1 [compound 7] | 32.9 | 37 | –
3 | Cc1cc(Oc2ccc(CNC(=O)Nc3cc(C(F)(F)F)cnc3Cl)cc2C)ccn1 [compound 30] | 960 | 100 | –
4 | CNC(=O)c1cc(Oc2ccc(CNC(=O)Nc3cc(C)cnc3OC)cc2)ccn1 [compound 19] | 155 | 63 | –
5 | COc1ncc(Cl)cc1NC(=O)NCc1ccc(Oc2ccnc(C)c2)c(C)c1 [compound 28] | 348 | 110 | –
6 | COc1ncc(C)cc1NC(=O)NCc1ccc(Oc2ccncc2)cc1 [compound 18] | 733 | 100 | –
7 | CNC(=O)c1cc(Oc2ccc(CNC(=O)Nc3cc(C(F)(F)F)cnc3Cl)cc2C)ccn1 [compound 26] | 42.4 | 52 | –
8 | CNC(=O)c1cc(Oc2ccc(CNC(=O)Nc3cc(C(F)(F)F)cn(C)c3=O)cc2)ccn1 [compound 8] | – | 97 | 14.8
9 | Cc1cc(Oc2ccc(CNC(=O)Nc3cc(C(F)(F)F)cn(C)c3=O)cc2C)ccn1 [compound 6] | 258 | 110 | –
10 | CNC(=O)c1cc(Oc2ccc(CNC(=O)Nc3cc(Cl)cnc3OC)cc2C)ccn1 [compound 23] | 45.4 | 37 | –
